“Also recorded” adds a separate entry of the source.
Tests used:
[1] = tested on: human malignant U373 glioma cells; assay: Cell viability / cell death (MTT test, propidium iodide, annexin-V-Alexa 568 binding, FACS scatter morphology); conditions: 260 μM in 0.1% DMSO/PBS, 20 min, substance alone
Protocol: Human malignant U373-glioma cells were grown to 70% confluency in RPMI-1640 Ready Mix Medium containing L-Glutamine and 10% FBS-Gold (PAA laboratories, Pasching, Austria) at 37° C., 5% CO2 (vol/vol), in 4-well-plates (NUNC, Wiesbaden, Germany) with about 300,000 cells pro well. […] After this, the cells were washed three times with buffer and then incubated with Ready Mix Medium again. Cell viability was then assessed by the addition of methyl-thiazoyl-tetrazolium (MTT) salt (Sigma-Aldrich, Germany) at a concentration of 15 mg/ml. After 20 minutes, the production of formazan was investigated. When blue formazan granules were detected, propidium iodine (PI) was added to the medium (1 μM PI; Molecular Probes, Eugene, Oreg., USA) to detect cells with damaged cell membranes. […] Pictures were taken with a 3-CCD color video camera (MC3254P, Sony, Japan) and the Axiovision Software (Carl Zeiss, Jena, Germany). The intensity of cell fluorescence was recorded at the exposure time necessary for the production of the fluorescence images.
After imaging, Accutase™ (PAA laboratories, Pasching, Austria) was added to the wells to achieve detachment of the cells for further FACS analysis. Fluorescence was measured in a Becton Dickinson FACSCalibur. A total of 20,000 events per sample were analyzed. The investigations were performed in triplicate.
A sample of cells from each Eppendorf tube was subjected to the MTT test (described under 1.4) to determine microscopically whether the cells were viable. In vitro CT of the cell pellets was performed with a Somatom Sensation 16 (Siemens) which is used for routine clinical investigations.
Cells were incubated for 20 minutes with each of the conjugates dissolved in 0.1% DMSO/PBS at 260 μm. The cells were also incubated with TIBA and both of the non-TIBA-containing conjugates (3 and 4) separately in 0.1% DMSO/OBS at 260 μm. Both TIBA and the conjugates were dissolved in 0.1% DMSO/PBS at 260 μm for incubation due to the insolubility of TIBA (but not the conjugates) in pure PBS. As controls, the cells were incubated with PBS alone, 0.1% DMSO/PBS alone, and TIBA alone (260 μm in 0.1% DMSO/PBS).
The detection of phosphatidyl serine in the outer membrane leaflet of apoptotic cells was performed with the Annexin-V-Alexa™-568-reagent according to manufacturer's protocol (Roche Molecular Biochemicals, Indianapolis, USA). The confocal laser-scanning microscopy was performed on an inverted LSM 510 laser-scanning microscope (Carl Zeiss, Jena, Germany) (objectives: LD Achroplan 40×0.6, Plan Neofluar 20×0.50, 40×0.75). For fluorescence excitation, the 488 nm line of an argon-ion laser and the […] line of a helium-neon laser with appropriate beam splitters and barrier filters were used for FITC and Alexa respectively. Superimposed images of FITC- and Alexa-stained samples were created by overlaying coincident views. All measurements were performed on living, non-fixed cells.
Human malignant LN18 and U373 glioma cells were cultivated in four-well plates (NUNC, Wiesbaden, Germany) (about 300,000 cells per well) as described under 1.5. […] The cells were also coincubated either with CIBA, FIBA or TBPI as well as the NLS-FITC conjugate 3 (each 260 μM). As a control cells were used which were only incubated either with CIBA, FIBA or TBPI (260 μM in PBS) alone. After the incubation the cells were washed three times with PBS and in the following again incubated in Ready Mix Medium. The FITC-labelled conjugates and the Alexa-Annexin for the detection of phosphatidylserine as a signal of the cell death were localized with the confocal laser microscopy (CLSM) as in 1.6.1. All measurements were performed on living cells.

[2] = tested on: human malignant U373 glioma cells; assay: Computer tomography, signal density of cell pellets; type: cell-based; conditions: 260 μM, 20 min
Protocol: For CT and FACS human U373 glioma cells were grown under the same conditions in 75 cm^2 culture flasks (Corning Costar, Bodenheim, Germany) (70% confluency). Accutase™ (PAA laboratories, Pasching, Austria) was added to achieve detachment of the cells which were harvested and subsequently aliquoted into Eppendorf tubes (6×10^6 cells per tube). As in the investigations performed by fluorescence microscopy, the cells in the first tube served as a control (PBS only). The cells in the other tubes were incubated with 260 μM Ultravist, 260 μM TIBA in PBS and 26 μM, 260 μM and 2.6 mM conjugates 1-4 in PBS. After a 20 minute incubation period at 37° C. in an atmosphere of 5% CO2, the cells were washed three times in PBS and centrifuged at 800 rpm for 5 minutes.
The inner ear spiral CT protocol consisted of: tube voltage 120 KV, effective mAs 550, time of imaging TI: 1.5, SL 0.75/0.75/4.5, FOV: 50 0/52, kernel: U70, window: intervertebral disc.
3D-images were obtained using InSpace Software (Syngo CT 2006G) (Siemens AG, Erlangen, Germany).
After an incubation of 20 minutes at 37° C./5% CO2 the cells were washed three times with PBS buffer and centrifuged at 800 rpm (rounds per minute) for 5 minutes. The fluorescence was measured in Becton Dickinson FACSCalibur as described under 1.4. The computer tomography was performed as described under 1.5.1. The examinations were repeated two times. […]
An Orbita CT spiral was used: tube voltage 120 KV, effective mAs 550, time of imaging TI: 1.5, SL 0.75/0.75/4.5, FOV: 50 0/52, GT: 0.0, kernel: U70, window: intervertebral disc. 3D images were made with the InSpace Software (Syngo CT 2006G) (Siemens AG, Erlangen, Germany). […]

Solubility = type: physicochemical; conditions: 260 μM
[3] = cited from earlier work

O=C(O)c1cc(I)cc(I)c1I [TIBA, 2,3,5-triiodobenzoic acid, reference compound]
binding of annexin-V-Alexa 568 reagent (phosphatidyl serine) / cytotoxic effects [1]: did not result in binding; also recorded: did not appear to produce any cytotoxic effects | CT signal density of cell pellets [2]: only low signal density values; also recorded: did not result in any increase in signal density | solubility in pure PBS (Solubility): insolubility | solubility in water [3]: does not dissolve in water
